Tests used:
Format in all cases: cell-based
[1] = tested on: Aerobic bacteria: Klebsiella pneumoniae (ATCC 8308), Bacillus subtilis (ATCC 8473), Pseudomonas aeruginosa (ATCC 15442), Staphylococcus aureus (ATCC 6538); experiment: Synergy test in 96 well microtiter plate against aerobic bacteria; settings: end point, 24 hours; for Aqucar TN-50 (ppm THNM) - QA: THNM alone
Experimental: The synergism of the biocides combination of the present invention was determined using the method described by Kull, F. C, et al. in Applied Microbiology 9:538-541 (1961). […] If end point could not be established, the highest concentration of biocide tested will be used as the end point for the calculation and the SI will be recorded in “less than or <” values. […] The type of microorganisms used for the test inoculums, the matrix to support optimum microbial growth during the test period and the medium used to enumerate the microorganisms after specified contact time are summarized in Table 2. Mineral salts medium (MSM). The medium contains (in mg/l) the following components: FeCl3.6H2O (1); CaCl2.2H2O (10); MgSO4.7H2O (22.5); (NH4)2SO4 (40); KH2PO4 (10); K2HPO4 (25.5); Yeast Extract (10); and glucose (100). After all components are added to deionized water, the pH of the medium is adjusted to 7.5 before use. [table] Synergy tests of THNM alone and in combination with a second biocide against the different test microorganisms were conducted using standard 96 well microtiter plate assays. The test was carried out by adding 500 uL of matrix, 50 μl of tested organism and 50 μl of each biocide into wells of the microtiter plate. The final biocides and test inoculum concentrations in each well were established based on this total volume. For each experiment, the final concentration of the test organisms was in the range of 10^6 to 10^7 cfu/ml. The highest concentration of THNM and second biocide used in this synergy study was 250 and 100 or 50 ppm (depending on the efficacy of the active), respectively. Eight 2-fold dilutions of each biocide were prepared using an automated liquid handling system. The first biocide was added into the well plate horizontally and the second biocide is added after rotating the plate 90 degrees. Columns nine and ten were reserved for each individual biocide to be tested at each concentration level to achieve at least 4-log bacterial kill or 2-log bacterial count (defined as end point) for synergy index calculation. In case the end point was not achieved, the highest biocide concentration tested was used for synergy index calculation. Wells in Column 11 were used as positive controls; they contained only the media and the test organism. The plates were incubated at 25° C. for aerobic bacteria and 32° C. for anaerobic bacteria. Enumeration was performed 24 hours contact time by employing the MPN method. Numbers of surviving bacteria were determined by removing 20 uL of the cell suspension from each well and adding it into 180 ul of enumeration media (i.e., resazurin TSB plates) then serially dilute in a 96-well block. Plates were incubated for 48 hours or until growth is observed in the control wells.

[2] = tested on: Desulfuvibrio longus (D. longus); experiment: Synergy test in 96 well microtiter plate against anaerobic sulfate reducing bacteria; settings: end point, 32° C.; for Aqucar TN-50 (ppm THNM) - QA: THNM alone
Experimental: The synergism of the biocides combination of the present invention was determined using the method described by Kull, F. C, et al. in Applied Microbiology 9:538-541 (1961). […] If end point could not be established, the highest concentration of biocide tested will be used as the end point for the calculation and the SI will be recorded in “less than or <” values. […] The type of microorganisms used for the test inoculums, the matrix to support optimum microbial growth during the test period and the medium used to enumerate the microorganisms after specified contact time are summarized in Table 2. SNF (per liter of deionized water): NaCl, 3.12 gm; NaHCO3 0.131 gm; Na2SO4 0.17 gm; 1% KCl Solution (in water) 4.77 g; 1% CaCl2 Solution (in water) 7.2 gm; 1% MgSO4 Solution (in water) 5.45 gm; 1% Na2CO3 Solution (in water) 4.39 gm. Adjust the pH to 7 before use. Modified Baar's medium (MB): MgSO4, 2 g/l; sodium citrate, 5 g/l; CaSO4, 1 g/l; NH4Cl, g/l; K2HPO4, 0.5 g/l; sodium lactate, 3.5 g/l; yeast extract, 1 g/l; Sodium thioglycolate 0. g/l. Fe(NH4)2(SO4)2 1 g/l, deionized water. Adjust the pH to 7.5 before sodium thioglycolate is added. [table] Synergy tests of THNM alone and in combination with a second biocide against the different test microorganisms were conducted using standard 96 well microtiter plate assays. The test was carried out by adding 500 uL of matrix, 50 μl of tested organism and 50 μl of each biocide into wells of the microtiter plate. The final biocides and test inoculum concentrations in each well were established based on this total volume. For each experiment, the final concentration of the test organisms was in the range of 10^6 to 10^7 cfu/ml. The highest concentration of THNM and second biocide used in this synergy study was 250 and 100 or 50 ppm (depending on the efficacy of the active), respectively. Eight 2-fold dilutions of each biocide were prepared using an automated liquid handling system. The first biocide was added into the well plate horizontally and the second biocide is added after rotating the plate 90 degrees. Columns nine and ten were reserved for each individual biocide to be tested at each concentration level to achieve at least 4-log bacterial kill or 2-log bacterial count (defined as end point) for synergy index calculation. In case the end point was not achieved, the highest biocide concentration tested was used for synergy index calculation. Wells in Column 11 were used as positive controls; they contained only the media and the test organism. The plates were incubated at 25° C. for aerobic bacteria and 32° C. for anaerobic bacteria. Enumeration was performed 24 hours contact time by employing the MPN method. Numbers of surviving bacteria were determined by removing 20 uL of the cell suspension from each well and adding it into 180 ul of enumeration media (i.e., resazurin TSB plates) then serially dilute in a 96-well block. Plates were incubated for 48 hours or until growth is observed in the control wells.

[3] = tested on: Field isolate, Acid Producing bacteria (APB); experiment: Synergy test in 96 well microtiter plate against anaerobic acid producing bacteria; settings: end point, Environmental isolate APB, 24 hours, 32° C.; for Aqucar TN-50 (ppm THNM) - QA: THNM alone
Experimental: The synergism of the biocides combination of the present invention was determined using the method described by Kull, F. C, et al. in Applied Microbiology 9:538-541 (1961). […] If end point could not be established, the highest concentration of biocide tested will be used as the end point for the calculation and the SI will be recorded in “less than or <” values. […] The type of microorganisms used for the test inoculums, the matrix to support optimum microbial growth during the test period and the medium used to enumerate the microorganisms after specified contact time are summarized in Table 2. Mineral salts medium (MSM No Nutrients). The medium contains (in mg/l) the following components: FeCl3.6H2O (1); CaCl2.2H2O (10); MgSO4.7H2O (22.5); (NH4)2SO4 (40); KH2PO4 (10); and K2HPO4 (25.5). After all components are added to deionized water, the pH of the medium is adjusted to 7.5 before use. [table] Synergy tests of THNM alone and in combination with a second biocide against the different test microorganisms were conducted using standard 96 well microtiter plate assays. The test was carried out by adding 500 uL of matrix, 50 μl of tested organism and 50 μl of each biocide into wells of the microtiter plate. The final biocides and test inoculum concentrations in each well were established based on this total volume. For each experiment, the final concentration of the test organisms was in the range of 10^6 to 10^7 cfu/ml. The highest concentration of THNM and second biocide used in this synergy study was 250 and 100 or 50 ppm (depending on the efficacy of the active), respectively. Eight 2-fold dilutions of each biocide were prepared using an automated liquid handling system. The first biocide was added into the well plate horizontally and the second biocide is added after rotating the plate 90 degrees. Columns nine and ten were reserved for each individual biocide to be tested at each concentration level to achieve at least 4-log bacterial kill or 2-log bacterial count (defined as end point) for synergy index calculation. In case the end point was not achieved, the highest biocide concentration tested was used for synergy index calculation. Wells in Column 11 were used as positive controls; they contained only the media and the test organism. The plates were incubated at 25° C. for aerobic bacteria and 32° C. for anaerobic bacteria. Enumeration was performed 24 hours contact time by employing the MPN method. Numbers of surviving bacteria were determined by removing 20 uL of the cell suspension from each well and adding it into 180 ul of enumeration media (i.e., resazurin TSB plates) then serially dilute in a 96-well block. Plates were incubated for 48 hours or until growth is observed in the control wells.

## O=[N+]([O-])C(CO)(CO)CO [THNM, Tris(hydroxymethyl)nitromethane]
[1]; Table 3, aerobic bacteria, 25° C.
  Aqucar TN-50 (ppm THNM) - QA: >250 ppm
[1]; Table 4, aerobic bacteria, 25° C.
  Aqucar TN-50 (ppm THNM) - QA: >250 ppm
[1]; Table 5, aerobic bacteria, 25° C.
  Aqucar TN-50 (ppm THNM) - QA: >250 ppm
[1]; Table 6
  Aqucar TN-50 (ppm THNM) - QA: >250 ppm
[2]; Table 7, 24 hours
  Aqucar TN-50 (ppm THNM) - QA: 250.00 ppm
[2]; Table 8, 24 hours
  Aqucar TN-50 (ppm THNM) - QA: 250.00 ppm
[2]; Table 9, 24 hours
  Aqucar TN-50 (ppm THNM) - QA: 250.00 ppm
[2]; Table 10, 24 hours
  Aqucar TN-50 (ppm THNM) - QA: 250.00 ppm
[3]; Table 11
  Aqucar TN-50 (ppm THNM) - QA: >250 ppm
[3]; Table 12
  Aqucar TN-50 (ppm THNM) - QA: >250 ppm
[3]; Table 13
  Aqucar TN-50 (ppm THNM) - QA: >250 ppm
[3]; Table 14
  Aqucar TN-50 (ppm THNM) - QA: >250 ppm

## Benzalkonium chloride (benzyl-C8-18-alkyldimethyl, chlorides) [BKC]
[1]; BKC alone, aerobic bacteria, 25° C.
  Benzalkonium Chloride (ppm BKC) - QB: >50 ppm
[2]; BKC alone, 24 hours
  BKC (ppm ADBAC) - QB: 3.13 ppm
[3]; BKC alone
  BKC (ppm ADBAC) - QB: 12.50 ppm

## N-alkyl (50% C14, 40% C12, 10% C16) dimethylbenzyl ammonium Chloride [ADBAC]
[1]; ADBAC alone, aerobic bacteria, 25° C.
  Maquat MC1412 (ppm ADBAC) - QB: >50 ppm
[2]; ADBAC alone, 24 hours
  Maquat MC1412 (ppm ADBAC) - QB: 6.25 ppm
[3]; ADBAC alone
  Maquat MC1412 (ppm ADBAC) - QB: 12.5 ppm
